Laboratory results published in publication PMC2120305 (The Journal of Cell Biology, 1994).
pIC50: −log10 of the molar value. Values joined by “and” are separate entries in the source; they are usually repeats but may differ in a detail not shown here. Identical values can stand only once. Like-named read-outs stand apart in the source and are kept apart here.

Key:
[1] = tested on: glycosylation of VSV-g protein; format: biochemical, CHO cells
[2] = tested on: glycosylation of endogenous VSV-g protein; format: biochemical, CHO cells
Golgi membranes = test: Membrane integrity: retention of a preformed UDP-[3H]-GlcNAc gradient; format: biochemical, CHO cells; conditions: Fig. 5 A; MAS 3.3 µM, ARFp13 43 µM, NEM 1 mM, SDS 50 µM; 10 min with inhibitors
in vitro Golgi transport = format: biochemical, CHO cells
[3] = tested on: beta-COP binding to isolated Golgi membranes; conditions: 25 µM MAS; cited from earlier work
[4] = tested on: p200 binding to rat liver Golgi membranes; conditions: 100 µM MAS; cited from earlier work
[5] = tested on: release of vesicles from the TGN of PC12 cells; conditions: cited from earlier work

CCN1C(=O)C=CC1=O [NEM]
Glycosylation of VSV-g protein after its delivery to the acceptor compartment [1]: subse- quent glycosylation is inhibited
Effect on glycosylation of VSV-g protein [2]: similarly inhibitory effect
Integrity of the membranes (Golgi membranes): near complete loss of membrane integrity

CCCCCCCCCCCCOS(=O)(=O)[O-].[Na+] [SDS]
Effect on glycosylation of VSV-g protein [2]: similarly inhibitory effect
Integrity of the membranes (Golgi membranes): only partially compromised

Mastoparan
IC50 with normal versus ARF-depleted cytosol (in vitro Golgi transport): the same
pIC50 (in vitro Golgi transport; read-out: IC50 for inhibition of in vitro Golgi transport): 6.12
pIC50 (in vitro Golgi transport; read-out: IC50 in vitro transport, addition of BFA 0 µM): 5.66
pIC50 (in vitro Golgi transport; read-out: IC50 in vitro transport, addition of BFA 200 µM): 5.70
pIC50 (in vitro Golgi transport; read-out: IC50 in vitro transport, addition of GTP 0 µM): 5.85
pIC50 (in vitro Golgi transport; read-out: IC50 in vitro transport, addition of GTP 50 µM): 5.89
pIC50 (in vitro Golgi transport; read-out: IC50 in vitro transport, mock-treated membranes): 5.89
pIC50 (in vitro Golgi transport; read-out: IC50 in vitro transport, pertussis toxin treated membranes): 5.89
Glycosylation of VSV-g protein after its delivery to the acceptor compartment [1]: subse- quent glycosylation is inhibited
pIC50 ([1]; read-out: IC50, peptide added before glycosylation): 5.55 and 5.72
Effect on glycosylation of VSV-g protein [2]: similarly inhibitory effect
Integrity of the membranes (Golgi membranes): near complete loss of membrane integrity
Increase in the amount of beta-COP bound to isolated Golgi membranes [3]: 10 fold
Stimulation of p200 binding to rat liver Golgi membranes in vitro [4]: more than sevenfold
Inhibition of release of vesicles from the TGN [5]: ~30%

Pertussis toxin
Stimulation of TGN vesicle release after pertussis toxin treatment [5]: 1.6- 1.7 fold
